Reference: ChEMBL document CHEMBL3885861, “Open TG-GATES”

Species: Rattus norvegicus
Experiment: Open TG-GATES - Regimen: Single
Assay type: toxicity, organism-based, Sprague-Dawley
Parameters: regimen Single, gender Male, age 6 weeks
Conditions: in vivo, po, route gavage; for APTT / Bas / Eos / Fbg / Hb / Ht / Lym / MCH / MCHC / MCV / Mono / Neu / PT / Plat / RBC / Ret / WBC: tissue Blood; for KIDNEY_L / KIDNEY_R / KIDNEY_TOTAL: tissue Kidney; for LIVER: tissue Liver; for A/G / ALP / ALT / AST / BUN / CRE / Ca / Cl / DBIL / GLC / IP / K / LDH / Na / PL / RALB / TBIL / TC / TG / TP / gamma-GTP: tissue Plasma
[1] = 50 mg/kg, 3 h, dose level Middle
[2] = 50 mg/kg, 6 h, dose level Middle
[3] = 50 mg/kg, 9 h, dose level Middle
[4] = 50 mg/kg, 24 h, dose level Middle
[5] = 150 mg/kg, 3 h, dose level High
[6] = 150 mg/kg, 6 h, dose level High
[7] = 150 mg/kg, 9 h, dose level High
[8] = 150 mg/kg, 24 h, dose level High

## Nc1nc(N)c2nc(-c3ccccc3)c(N)nc2n1
[1]
  TERMINAL_BW: 214.5 g
  APTT: 16.6 s
  Bas: 0%
  Eos: 0.8%
  Fbg: 295.2 mg/dL
  Hb: 14.3 g/dL
  Ht: 43.1%
  Lym: 77%
  MCH: 21.2 pg
  MCHC: 33.2%
  MCV: 64 fL
  Mono: 3.4%
  Neu: 18.4%
  PT: 13.9 s
  Plat: 121.1 x10_4/uL
  RBC: 673.2 x10_4/ul
  Ret: 7%
  WBC: 86.9 x10_2/uL
  KIDNEY_L: 1 g
  KIDNEY_R: 1 g
  KIDNEY_TOTAL: 1.9 g
  LIVER: 9.5 g
  A/G: 0.9
  ALP: 1490.4 IU/L
  ALT: 42.4 IU/L
  AST: 73.2 IU/L
  BUN: 12.2 mg/dL
  CRE: 0.2 mg/dL
  Ca: 11 mg/dL
  Cl: 105.2 meq/L
  DBIL: 0.006 mg/dL
  GLC: 165 mg/dL
  IP: 8.7 mg/dL
  K: 4.7 meq/L
  LDH: 59.4 IU/L
  Na: 141.4 meq/L
  PL: 160.8 mg/dL
  RALB: 2.7 g/dL
  TBIL: 0.062 mg/dL
  TC: 90.6 mg/dL
  TG: 56.2 mg/dL
  TP: 5.7 g/dL
  gamma-GTP: 1.4 IU/L
[2]
  TERMINAL_BW: 207.3 g
  APTT: 16.9 s
  Bas: 0%
  Eos: 1%
  Fbg: 337 mg/dL
  Hb: 14.3 g/dL
  Ht: 43.5%
  Lym: 69.8%
  MCH: 20.9 pg
  MCHC: 32.9%
  MCV: 63.5 fL
  Mono: 2.2%
  Neu: 27%
  PT: 14.1 s
  Plat: 124.3 x10_4/uL
  RBC: 685.4 x10_4/ul
  Ret: 7.5%
  WBC: 81.3 x10_2/uL
  KIDNEY_L: 1 g
  KIDNEY_R: 1 g
  KIDNEY_TOTAL: 1.9 g
  LIVER: 9 g
  A/G: 1
  ALP: 1195.2 IU/L
  ALT: 35.2 IU/L
  AST: 72.4 IU/L
  BUN: 11.4 mg/dL
  CRE: 0.2 mg/dL
  Ca: 10.9 mg/dL
  Cl: 106.8 meq/L
  DBIL: 0.01 mg/dL
  GLC: 167.6 mg/dL
  IP: 9.1 mg/dL
  K: 5 meq/L
  LDH: 62.6 IU/L
  Na: 142.4 meq/L
  PL: 149.4 mg/dL
  RALB: 2.8 g/dL
  TBIL: 0.06 mg/dL
  TC: 81.2 mg/dL
  TG: 54 mg/dL
  TP: 5.6 g/dL
  gamma-GTP: 1 IU/L
[3]
  TERMINAL_BW: 208.4 g
  APTT: 18 s
  Bas: 0%
  Eos: 1%
  Fbg: 310.4 mg/dL
  Hb: 14.1 g/dL
  Ht: 42.6%
  Lym: 70.2%
  MCH: 20.9 pg
  MCHC: 33.1%
  MCV: 63 fL
  Mono: 2%
  Neu: 26%
  PT: 13.9 s
  Plat: 116.9 x10_4/uL
  RBC: 677 x10_4/ul
  Ret: 7.4%
  WBC: 88.1 x10_2/uL
  KIDNEY_L: 1 g
  KIDNEY_R: 1 g
  KIDNEY_TOTAL: 2 g
  LIVER: 8.5 g
  A/G: 0.9
  ALP: 1205.8 IU/L
  ALT: 37 IU/L
  AST: 72 IU/L
  BUN: 11.4 mg/dL
  CRE: 0.2 mg/dL
  Ca: 10.8 mg/dL
  Cl: 105.8 meq/L
  DBIL: 0.008 mg/dL
  GLC: 161.8 mg/dL
  IP: 10.6 mg/dL
  K: 4.6 meq/L
  LDH: 48.2 IU/L
  Na: 142.6 meq/L
  PL: 133.6 mg/dL
  RALB: 2.7 g/dL
  TBIL: 0.056 mg/dL
  TC: 74.2 mg/dL
  TG: 37.4 mg/dL
  TP: 5.6 g/dL
  gamma-GTP: 1.2 IU/L
[4]
  TERMINAL_BW: 227.4 g
  APTT: 16.3 s
  Bas: 0%
  Eos: 1%
  Fbg: 314.2 mg/dL
  Hb: 14.1 g/dL
  Ht: 42%
  Lym: 79.8%
  MCH: 22 pg
  MCHC: 33.5%
  MCV: 65.5 fL
  Mono: 2.4%
  Neu: 16.6%
  PT: 13.9 s
  Plat: 130 x10_4/uL
  RBC: 642 x10_4/ul
  Ret: 7.4%
  WBC: 86.7 x10_2/uL
  KIDNEY_L: 1 g
  KIDNEY_R: 1 g
  KIDNEY_TOTAL: 2 g
  LIVER: 10.9 g
  A/G: 0.9
  ALP: 1815 IU/L
  ALT: 47 IU/L
  AST: 67.4 IU/L
  BUN: 16.2 mg/dL
  CRE: 0.2 mg/dL
  Ca: 11.3 mg/dL
  Cl: 105.8 meq/L
  DBIL: 0.01 mg/dL
  GLC: 179.8 mg/dL
  IP: 8.2 mg/dL
  K: 4 meq/L
  LDH: 60.6 IU/L
  Na: 144.2 meq/L
  PL: 155.4 mg/dL
  RALB: 2.7 g/dL
  TBIL: 0.04 mg/dL
  TC: 81 mg/dL
  TG: 92 mg/dL
  TP: 5.5 g/dL
  gamma-GTP: 1 IU/L
[5]
  TERMINAL_BW: 213.5 g
  APTT: 17.4 s
  Bas: 0.4%
  Eos: 0.8%
  Fbg: 303.6 mg/dL
  Hb: 14.2 g/dL
  Ht: 42.4%
  Lym: 77.2%
  MCH: 21.3 pg
  MCHC: 33.4%
  MCV: 63.7 fL
  Mono: 3.2%
  Neu: 17.6%
  PT: 14 s
  Plat: 128.5 x10_4/uL
  RBC: 666 x10_4/ul
  Ret: 7.5%
  WBC: 118.9 x10_2/uL
  KIDNEY_L: 1 g
  KIDNEY_R: 1 g
  KIDNEY_TOTAL: 2 g
  LIVER: 9.5 g
  A/G: 1
  ALP: 1286.4 IU/L
  ALT: 36.6 IU/L
  AST: 71 IU/L
  BUN: 12.8 mg/dL
  CRE: 0.2 mg/dL
  Ca: 10.8 mg/dL
  Cl: 105.8 meq/L
  DBIL: 0.01 mg/dL
  GLC: 166.4 mg/dL
  IP: 8.6 mg/dL
  K: 5.2 meq/L
  LDH: 56.2 IU/L
  Na: 141 meq/L
  PL: 142.6 mg/dL
  RALB: 2.7 g/dL
  TBIL: 0.06 mg/dL
  TC: 77.6 mg/dL
  TG: 67.2 mg/dL
  TP: 5.5 g/dL
  gamma-GTP: 1 IU/L
[6]
  TERMINAL_BW: 206.9 g
  APTT: 17.1 s
  Bas: 0%
  Eos: 1%
  Fbg: 349 mg/dL
  Hb: 14.4 g/dL
  Ht: 43.7%
  Lym: 74.4%
  MCH: 20.9 pg
  MCHC: 33%
  MCV: 63.3 fL
  Mono: 2.8%
  Neu: 20.8%
  PT: 13.9 s
  Plat: 123.5 x10_4/uL
  RBC: 690.6 x10_4/ul
  Ret: 7.5%
  WBC: 94.4 x10_2/uL
  KIDNEY_L: 1 g
  KIDNEY_R: 1 g
  KIDNEY_TOTAL: 1.9 g
  LIVER: 9.1 g
  A/G: 1
  ALP: 1417.8 IU/L
  ALT: 37.8 IU/L
  AST: 76.6 IU/L
  BUN: 11.8 mg/dL
  CRE: 0.2 mg/dL
  Ca: 10.9 mg/dL
  Cl: 105.8 meq/L
  DBIL: 0.01 mg/dL
  GLC: 169.6 mg/dL
  IP: 9.4 mg/dL
  K: 5.3 meq/L
  LDH: 65.2 IU/L
  Na: 140 meq/L
  PL: 150.6 mg/dL
  RALB: 2.8 g/dL
  TBIL: 0.058 mg/dL
  TC: 80.8 mg/dL
  TG: 55.6 mg/dL
  TP: 5.8 g/dL
  gamma-GTP: 1 IU/L
[7]
  TERMINAL_BW: 205.8 g
  APTT: 17.3 s
  Bas: 0.2%
  Eos: 1%
  Fbg: 347 mg/dL
  Hb: 14.4 g/dL
  Ht: 43.5%
  Lym: 71.4%
  MCH: 20.9 pg
  MCHC: 33.1%
  MCV: 63.1 fL
  Mono: 2.2%
  Neu: 25%
  PT: 13.9 s
  Plat: 118.6 x10_4/uL
  RBC: 689.4 x10_4/ul
  Ret: 7.6%
  WBC: 77.8 x10_2/uL
  KIDNEY_L: 1 g
  KIDNEY_R: 1 g
  KIDNEY_TOTAL: 2 g
  LIVER: 8.3 g
  A/G: 1
  ALP: 1443.6 IU/L
  ALT: 35.2 IU/L
  AST: 73.4 IU/L
  BUN: 12.6 mg/dL
  CRE: 0.2 mg/dL
  Ca: 11.1 mg/dL
  Cl: 105.4 meq/L
  DBIL: 0.01 mg/dL
  GLC: 165.2 mg/dL
  IP: 10.6 mg/dL
  K: 5 meq/L
  LDH: 57.8 IU/L
  Na: 141.4 meq/L
  PL: 139 mg/dL
  RALB: 2.9 g/dL
  TBIL: 0.066 mg/dL
  TC: 79.4 mg/dL
  TG: 30.2 mg/dL
  TP: 5.9 g/dL
  gamma-GTP: 1.2 IU/L
[8]
  TERMINAL_BW: 222.9 g
  APTT: 17.6 s
  Bas: 0.2%
  Eos: 0.8%
  Fbg: 366.6 mg/dL
  Hb: 14.4 g/dL
  Ht: 42.7%
  Lym: 80.8%
  MCH: 21.7 pg
  MCHC: 33.7%
  MCV: 64.4 fL
  Mono: 2.4%
  Neu: 15.4%
  PT: 13.7 s
  Plat: 121.5 x10_4/uL
  RBC: 662.8 x10_4/ul
  Ret: 6.2%
  WBC: 84.4 x10_2/uL
  KIDNEY_L: 1 g
  KIDNEY_R: 1 g
  KIDNEY_TOTAL: 2 g
  LIVER: 10.2 g
  A/G: 0.9
  ALP: 1697.4 IU/L
  ALT: 43 IU/L
  AST: 67.4 IU/L
  BUN: 18 mg/dL
  CRE: 0.2 mg/dL
  Ca: 11.2 mg/dL
  Cl: 106.2 meq/L
  DBIL: 0.01 mg/dL
  GLC: 175.4 mg/dL
  IP: 8.4 mg/dL
  K: 4.4 meq/L
  LDH: 66.6 IU/L
  Na: 143.8 meq/L
  PL: 158 mg/dL
  RALB: 2.7 g/dL
  TBIL: 0.038 mg/dL
  TC: 85.2 mg/dL
  TG: 96.6 mg/dL
  TP: 5.6 g/dL
  gamma-GTP: 1 IU/L
